In PubChem BioAssay AID192 (DTP/NCI, 2004):
Values joined by “and” are separate entries in the source; they are usually repeats but may differ in a detail not shown here. Equal values may be shown once. Toxic doses and inconclusive results are not listed. How the source made its calls: active means survival T/C of 150% or more; inactive means T/C below 125% in these data. Peptide text beside a SMILES is read from it. * marks the point of attachment. Cbz = O=C(OCc1ccccc1)*; CH2Cl = ClC*

Tested on: BDF1 mice, B16 melanoma ip, median survival T/C
Experiment: NCI In Vivo Anticancer Drug Screen. Data for tumor model B16 Melanoma (intraperitoneal) in B6D2F1 (BDF1) mice
Details: endpoint: median survival time, higher = longer survival
Procedure, shortened: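 Values are ratios of treated (T) to vehicle-control (C) measurements of survival or tumor size in tumor-bearing mice.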

[1] = dose: 6.25 mg/kg/injection, schedule: Q01DX009 (ip), vehicle: saline
[2] = dose: 12.5 mg/kg/injection, schedule: Q01DX009 (ip), vehicle: saline with Tween-80
[3] = dose: 12.5 mg/kg/injection, schedule: Q01DX009 (ip), vehicle: saline
[4] = dose: 25.0 mg/kg/injection, schedule: Q01DX009 (ip), vehicle: saline with Tween-80
[5] = dose: 25.0 mg/kg/injection, schedule: Q01DX009 (ip), vehicle: saline
[6] = dose: 50.0 mg/kg/injection, schedule: Q01DX009 (ip), vehicle: saline with Tween-80
[7] = dose: 50.0 mg/kg/injection, schedule: Q01DX009 (ip), vehicle: saline
[8] = dose: 100.0 mg/kg/injection, schedule: Q01DX009 (ip), vehicle: Klucel (hydroxypropylcellulose) (HPC)
[9] = dose: 200.0 mg/kg/injection, schedule: Q01DX009 (ip), vehicle: Klucel (hydroxypropylcellulose) (HPC)
[10] = dose: 400.0 mg/kg/injection, schedule: Q01DX009 (ip), vehicle: Klucel (hydroxypropylcellulose) (HPC)
[11] = dose: 50.0 mg/kg/injection, schedule: Q01DX009 (ip), vehicle: Klucel (hydroxypropylcellulose) (HPC)
[12] = dose: 50.0 mg/kg/injection, schedule: Q04DX003 (ip), vehicle: Klucel (hydroxypropylcellulose) (HPC)
[13] = dose: 100.0 mg/kg/injection, schedule: Q04DX003 (ip), vehicle: Klucel (hydroxypropylcellulose) (HPC)
[14] = dose: 200.0 mg/kg/injection, schedule: Q04DX003 (ip), vehicle: Klucel (hydroxypropylcellulose) (HPC)
[15] = dose: 400.0 mg/kg/injection, schedule: Q04DX003 (ip), vehicle: Klucel (hydroxypropylcellulose) (HPC)

Measured: T/C

CCCC(=O)O.CCCC(=O)O.CCCC(=O)O.CCCC(=O)O.[Rh].[Rh]
inactive: dose: 46.7 micrograms/kg/injection, schedule: Q08HX018 (ip), vehicle: saline + alcohol 98 % of control | dose: 77.8 micrograms/kg/injection, schedule: Q08HX018 (ip), vehicle: saline + alcohol 97 % of control | dose: 93.3 micrograms/kg/injection, schedule: Q01DX009 (ip), vehicle: saline + alcohol 98 % of control | dose: 156.0 micrograms/kg/injection, schedule: Q01DX009 (ip), vehicle: saline + alcohol 98 % of control | dose: 216.0 micrograms/kg/injection, schedule: Q08HX018 (ip), vehicle: saline + alcohol 88 % of control | dose: 259.0 micrograms/kg/injection, schedule: Q01DX009 (ip), vehicle: saline + alcohol 102 % of control

CC(C)CC(NC(=O)CNC(=O)/C=C/c1ccco1)C(N)=O (stereo unspecified)
inactive: dose: 6.25 mg/kg/injection, schedule: Q01DX009 (ip), vehicle: saline with Tween-80 105 % of control | [1] 106 % of control | [2] 105 % of control | [3] 100 % of control | [4] 110 % of control | [5] 95 % of control | [6] 100 % of control and 105 % of control | [7] 97 % of control | dose: 100.0 mg/kg/injection, schedule: Q01DX009 (ip), vehicle: saline with Tween-80 92 % of control | dose: 200.0 mg/kg/injection, schedule: Q01DX009 (ip), vehicle: saline with Tween-80 98 % of control

N#CC(CC(=O)c1ccc2c(c1)OCO2)c1ccc2c(c1)OCO2 (stereo unspecified)
inactive: [8] 105 % of control | [9] 101 % of control | [10] 94 % of control

CCCCCCn1c(O)c(C=N)c(=O)[nH]c1=O
inactive: [8] 95 % of control | [9] 96 % of control | [10] 112 % of control

CC(C)(N)Cc1ccc(Cl)cc1
inactive: [1] 110 % of control | [3] 90 % of control | [5] 97 % of control | [7] 100 % of control | dose: 100.0 mg/kg/injection, schedule: Q01DX009 (ip), vehicle: saline 100 % of control

Nc1nc([Se])c2ncn(C3OC(CO)C(O)C3O)c2n1 (stereo unspecified)
inactive: dose: 1.0 mg/kg/injection, schedule: Q01DX009 (ip), vehicle: saline 114 % of control | dose: 2.0 mg/kg/injection, schedule: Q01DX009 (ip), vehicle: saline 116 % of control and 117 % of control | dose: 4.0 mg/kg/injection, schedule: Q01DX009 (ip), vehicle: saline 114 % of control | dose: 8.0 mg/kg/injection, schedule: Q01DX009 (ip), vehicle: saline 116 % of control and 117 % of control | dose: 16.0 mg/kg/injection, schedule: Q01DX009 (ip), vehicle: saline 121 % of control

CCC(C)c1ccccc1OC(=O)Nc1ccc(OC)cc1 (stereo unspecified)
inactive: [11] 100 % of control | [12] 106 % of control | [8] 103 % of control | [13] 106 % of control | [9] 100 % of control | [14] 103 % of control

O=C(O)c1cc(S(=O)O)ccc1O
inactive: dose: 10.0 mg/kg/injection, schedule: Q01DX009 (ip), vehicle: saline 103 % of control | dose: 20.0 mg/kg/injection, schedule: Q01DX009 (ip), vehicle: saline 106 % of control | dose: 40.0 mg/kg/injection, schedule: Q01DX009 (ip), vehicle: saline 98 % of control

OCC#CCOCC(O)CCl (stereo unspecified)
inactive: dose: 25.0 mg/kg/injection, schedule: Q01DX009 (ip), vehicle: water 102 % of control | dose: 50.0 mg/kg/injection, schedule: Q01DX009 (ip), vehicle: water 98 % of control | dose: 100.0 mg/kg/injection, schedule: Q01DX009 (ip), vehicle: water 92 % of control

O=S1(=O)N2CN3CN(C2)CN1C3
inactive: [11] 103 % of control | [8] 86 % of control

OCCN1CCCN(CCCN2c3ccccc3Sc3ccc(C(F)(F)F)cc32)CC1
inactive: dose: 0.14 mg/kg/injection, schedule: Q04DX003 (ip), vehicle: saline 108 % of control | dose: 0.29 mg/kg/injection, schedule: Q04DX003 (ip), vehicle: saline 100 % of control | dose: 0.58 mg/kg/injection, schedule: Q01DX009 (ip), vehicle: saline 98 % of control | dose: 0.58 mg/kg/injection, schedule: Q04DX003 (ip), vehicle: saline 99 % of control | dose: 1.17 mg/kg/injection, schedule: Q01DX009 (ip), vehicle: saline 98 % of control | dose: 1.17 mg/kg/injection, schedule: Q04DX003 (ip), vehicle: saline 104 % of control | dose: 2.34 mg/kg/injection, schedule: Q01DX009 (ip), vehicle: saline 96 % of control | dose: 2.34 mg/kg/injection, schedule: Q04DX003 (ip), vehicle: saline 105 % of control and 116 % of control | dose: 4.68 mg/kg/injection, schedule: Q01DX009 (ip), vehicle: saline 90 % of control | dose: 4.68 mg/kg/injection, schedule: Q04DX003 (ip), vehicle: saline 122 % of control | dose: 9.37 mg/kg/injection, schedule: Q04DX003 (ip), vehicle: saline 119 % of control

CC1=C2CC3CCC(C)C2(CC1)C3(C)C (stereo unspecified)
inactive: dose: 25.0 mg/kg/injection, schedule: Q04DX003 (ip), vehicle: saline with Tween-80 105 % of control | dose: 50.0 mg/kg/injection, schedule: Q04DX003 (ip), vehicle: saline with Tween-80 100 % of control | dose: 100.0 mg/kg/injection, schedule: Q04DX003 (ip), vehicle: saline with Tween-80 91 % of control

C#CCN(C)/N=N/c1nc[nH]c1C(N)=O
inactive: [2] 97 % of control | [4] 111 % of control | [6] 124 % of control

CCCCCC(=O)c1ccc(O)cc1O
inactive: dose: 12.5 mg/kg/injection, schedule: Q01DX009 (ip), vehicle: gum acacia 102 % of control | dose: 25.0 mg/kg/injection, schedule: Q01DX009 (ip), vehicle: gum acacia 89 % of control

COc1cc2c(cc1OC)N(S(=O)(=O)c1ccc(C)cc1)CCCC2=O
inactive: [13] 87 % of control | [14] 100 % of control | [15] 92 % of control

O=C(CBr)c1ccc(-c2ccccc2)cc1
inactive: dose: 12.5 mg/kg/injection, schedule: Q04DX003 (ip), vehicle: Klucel (hydroxypropylcellulose) (HPC) 88 % of control | dose: 25.0 mg/kg/injection, schedule: Q04DX003 (ip), vehicle: Klucel (hydroxypropylcellulose) (HPC) 102 % of control | [11] 93 % of control | [12] 94 % of control

Nc1ccc(Nc2ccc([N+](=O)[O-])cc2[N+](=O)[O-])cc1
inactive: dose: 50.0 mg/kg/injection, schedule: Q04DX003 (ip), vehicle: gum acacia 104 % of control | dose: 100.0 mg/kg/injection, schedule: Q04DX003 (ip), vehicle: gum acacia 97 % of control | dose: 200.0 mg/kg/injection, schedule: Q04DX003 (ip), vehicle: gum acacia 95 % of control

O=C(O)c1ccccc1C(=O)O.[C-]#[O+].[C-]#[O+].[C-]#[O+].[C-]#[O+].[Rh].[Rh]
inactive: [8] 108 % of control | [9] 100 % of control | [10] 94 % of control

COc1ccccc1NC(=O)Nc1cccc(C)c1C
inactive: [8] 87 % of control | [9] 86 % of control

CC(C)CC(NC(=O)OCc1ccccc1)C(=O)NC(Cc1ccccc1)C(=O)CCl (stereo not drawn) (Cbz-Leu-Phe-CH2Cl; configuration not given here)
inactive: dose: 1.56 mg/kg/injection, schedule: Q01DX009 (ip), vehicle: saline 99 % of control | dose: 3.12 mg/kg/injection, schedule: Q01DX009 (ip), vehicle: saline 99 % of control | [1] 97 % of control

O=C(CCN1CC1)Nc1cccc(NC(=O)CCN2CC2)c1
active: dose: 2.5 mg/kg/injection, schedule: Q01DX009 (ip), vehicle: Klucel (hydroxypropylcellulose) (HPC) 156 % of control | dose: 5.0 mg/kg/injection, schedule: Q01DX009 (ip), vehicle: Klucel (hydroxypropylcellulose) (HPC) 153 % of control and 173 % of control | dose: 10.0 mg/kg/injection, schedule: Q01DX009 (ip), vehicle: Klucel (hydroxypropylcellulose) (HPC) 211 % of control and 268 % of control

Cc1ccc(NC(=O)Nc2cccc3ccccc23)c(C)c1
inactive: [8] 89 % of control | [9] 98 % of control

C=C(Cl)CC1(C(=O)OCC)CCN(S(=O)(=O)c2ccc(C)cc2)c2ccccc2C1=O (stereo unspecified)
inactive: [13] 97 % of control | [14] 107 % of control | [15] 93 % of control
